Experimental data as given in ChEMBL document CHEMBL1201862, “PubChem BioAssay data set” (2004).
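Assay format: 96-well plates, 48-hour exposure. Here, GI50 denotes the concentration required for 50% inhibition of growth.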 The source made the active and inactive calls. Cut-off read from the data, not from the text of the source: active = GI50 up to about 1.1 µM and inactive = higher.

Legend:
Test in all cases: DTP human tumour cell line panel, 48 h
[1] = test system: ACHN
[2] = test system: COLO 205
[3] = test system: EKVX
[4] = test system: HCC 2998
[5] = test system: HCT-15
[6] = test system: HL-60
[7] = test system: HT-29
[8] = test system: LOX IMVI
[9] = test system: M14
[10] = test system: Malme-3M
[11] = test system: NCI-H460
[12] = test system: OVCAR-4
[13] = test system: OVCAR-8
[14] = test system: SK-MEL-2
[15] = test system: SK-MEL-5
[16] = test system: SK-OV-3
[17] = test system: SNB-19
[18] = test system: SNB-75
[19] = test system: UO-31

Structure (SMILES) | GI50 [1] | GI50 [2] | GI50 [3] | GI50 [4] | GI50 [5] | GI50 [6] | GI50 [7] | GI50 [8] | GI50 [9] | GI50 [10] | GI50 [11] | GI50 [12] | GI50 [13] | GI50 [14] | GI50 [15] | GI50 [16] | GI50 [17] | GI50 [18] | GI50 [19]
CNC(=O)OCc1nccc2c(C)c3[nH]c4ccc(OC)cc4c3cc12 | 1.61 µM (inactive) | 2.94 µM (inactive) | 16.7 µM (inactive) | 5.57 µM (inactive) | 3.03 µM | 2.58 µM (inactive) | 2.54 µM (inactive) | 3.04 µM (inactive) | 9.12 µM (inactive) | 7.98 µM (inactive) | 1.08 µM (active) | 8.11 µM (inactive) | 3.1 µM (inactive) | 8.91 µM (inactive) | 2.79 µM (inactive) | 10.7 µM (inactive) | 3.78 µM (inactive) | 7.82 µM (inactive) | 3.35 µM (inactive)
COc1cc(C2C3=C(COC3=O)OC(C)(C)Oc3cc4c(cc32)OCO4)cc(OC)c1OC (centres undefined) | 0.682 µM (active) | 0.236 µM (active) | 0.366 µM (active) | 0.535 µM (active) | 0.372 µM | 0.236 µM (active) | 0.258 µM (active) | 0.331 µM (active) | 0.281 µM (active) | > 37.8 µM (inactive) | 0.365 µM (active) | 3.3 µM (inactive) | 0.342 µM (active) | 0.673 µM (active) | 0.348 µM (active) | 0.476 µM (active) | 0.245 µM (active) | 0.253 µM (active) | 0.426 µM (active)
N#Cc1c2c(c(Cl)n3c1nc1ccccc13)CCCC2 | 3.56 µM (inactive) | 5.12 µM (inactive) | 17.8 µM (inactive) | 16.4 µM (inactive) | 3.21 µM | 1.66 µM (inactive) | 1.11 µM (active) | 1.9 µM (inactive) | 3.45 µM (inactive) | 13.2 µM (inactive) | 1.69 µM (inactive) | 4.35 µM (inactive) | 2.57 µM (inactive) | 2.8 µM (inactive) | 0.566 µM (active) | 2.48 µM (inactive) | 4.69 µM (inactive) | 17.2 µM (inactive) | 3.06 µM (inactive)
O=CC1=C(C(=O)OC(c2ccccc2)c2ccccc2)N2C(=O)[C@@H](NC(=O)Cc3cccs3)[C@H]2SC1 | > 100 µM (inactive) | > 100 µM (inactive) | > 100 µM (inactive) | > 100 µM (inactive) | > 100 µM | 23.3 µM (inactive) |  | > 100 µM (inactive) | > 100 µM (inactive) | > 100 µM (inactive) | > 100 µM (inactive) | > 100 µM (inactive) | > 100 µM (inactive) | > 100 µM (inactive) | > 100 µM (inactive) | > 100 µM (inactive) |  | > 100 µM (inactive) | 40 µM (inactive)
CCc1cccc(=O)c([O-])c1.CCc1cccc(=O)c([O-])c1.[Bi+3].[Cl-] | 8.17 µM (inactive) | 2.29 µM (inactive) | 13.8 µM (inactive) | 5.93 µM (inactive) | 3.66 µM | 2.54 µM (inactive) | 4.31 µM (inactive) | 7.53 µM (inactive) | 8.38 µM (inactive) | 1.79 µM (inactive) | 6.49 µM (inactive) | 13.6 µM (inactive) | 2.96 µM (inactive) | 12.7 µM (inactive) | 13.1 µM (inactive) | 21.4 µM (inactive) | 11 µM (inactive) | 17.6 µM (inactive) | 10 µM (inactive)
NC1=NC(=O)/C(=C/c2ccccc2[N+](=O)[O-])C(N)=N1 | > 100 µM (inactive) | > 100 µM (inactive) | > 100 µM (inactive) | > 100 µM (inactive) | > 100 µM | > 100 µM (inactive) | > 100 µM (inactive) | > 100 µM (inactive) | > 100 µM (inactive) | > 100 µM (inactive) | > 100 µM (inactive) | > 100 µM (inactive) | > 100 µM (inactive) | > 100 µM (inactive) | > 100 µM (inactive) | > 100 µM (inactive) | > 100 µM (inactive) | > 100 µM (inactive) | > 100 µM (inactive)
C=CCN(CC=C)CC(C(C)=O)C(c1ccccc1)c1c(O)c2ccccc2oc1=O (centres undefined) | > 100 µM (inactive) | > 100 µM (inactive) | > 100 µM (inactive) | > 100 µM (inactive) | > 100 µM | > 100 µM (inactive) | > 100 µM (inactive) | > 100 µM (inactive) | > 100 µM (inactive) | > 100 µM (inactive) |  | > 100 µM (inactive) | > 100 µM (inactive) | > 100 µM (inactive) | > 100 µM (inactive) | > 100 µM (inactive) | 15.6 µM (inactive) | 39.6 µM (inactive) | 18.2 µM (inactive)
COC(=O)N1C=CC2=C(C)C3Nc4ccccc4C3C(C)=C2C1 (centres undefined) | 0.521 µM (active) | 1.15 µM (inactive) | 1.25 µM (inactive) | 1.95 µM (inactive) | 1.12 µM | 1.98 µM (inactive) | 1.96 µM (inactive) | 2.23 µM (inactive) | 1.64 µM (inactive) | 3.03 µM (inactive) | 0.256 µM (active) | 1.34 µM (inactive) | 0.682 µM (active) | 1.47 µM (inactive) | 3.15 µM (inactive) | 1.86 µM (inactive) | 2.97 µM (inactive) | 2.24 µM (inactive) | 1.29 µM (inactive)
